Results reported in article PMC8287028 (Frontiers in Veterinary Science, 2021).
Several values for one entry are separate records, joined by “and”; a condition that tells them apart may be missing. Equal entries are not always repeated. Entries after “also recorded” stand apart in the source; their conditions may differ. Where two headings read alike, the source gives them in different places.

Columns and labels:
[1] = Pharmacokinetics after intravenous apixaban, plasma concentrations by LC/MS; assay type: in vivo, dog; details: dogs; for Vd: read-out: Vd (volume of distribution); for AUC: read-out: AUC (area-under-the-curve); for C0: read-out: C0 (concentration at time zero); for clearance: read-out: CL (systemic clearance) (converted); for half-life: read-out: K10 T½ (elimination half-life) (converted); for MRT: read-out: MRT (mean residence time)
Experimental: All injection durations were identical.
Catheters were flushed with 0.9% saline, without heparin.
Analyses of plots and PK modeling were performed using compartmental methods in standard software (Phoenix, WinNonlin, Certara, St. Louis, MO). One-, 2- and 3-compartment models were fit to the plasma concentration data.

[2] = test system: activated partial thromboplastin time; assay: Activated partial thromboplastin time (aPTT) on citrated plasma of dosed dogs; assay type: in vivo, dog
Experimental: Coagulation assays were performed on platelet-poor, citrated plasma samples by a reference laboratory (Comparative Coagulation Laboratory, Animal Health Diagnostic Center, Ithaca, NY). […] The assay is configured with a bovine activated Factor X reagent that is added in excess to the test plasma and a chromogenic substrate of Factor Xa (STA Liquid anti-Xa, Diagnostica Stago). Residual, uninhibited Factor Xa cleaves the chromogenic substrate such that the inverse of the color change in the reaction mixture is proportional to the drug concentration in the test plasma. […] Assay controls, consisting of human plasma spiked with apixaban (STA Apixaban Controls, Diagnostica Stago) were analyzed before each batch of test samples to confirm assay performance. The apixaban levels in calibrators and controls are defined by the manufacturer from an internal reference assayed by HPLC-MS. […] A mechanical endpoint method (STA Compact, Diagnostica Stago) and human coagulation reagents were used to measure prothrombin time (Thromboplastin LI, Helena Diagnostics, Beaumont, TX) and activated partial thromboplastin time (Dade Actin FS, Dade Behring, Newark, DE). […]

[3] = male beagles, 5 mg/kg 14C labeled apixaban orally; cited from earlier work
[4] = horses, cited from earlier work
[5] = test system: Factor Xa; details: cited from earlier work
[6] = both sexes, mixed-breed, dog, plasma, iv, 0.18 mg/kg, IV, mean dose 0.18 mg/kg, geometric mean
[7] = both sexes, mixed-breed, dog, plasma, iv, 0.18 mg/kg, IV, mean dose 0.18 mg/kg, mean of 6 dogs
[8] = IV, mean dose 0.18 mg/kg, individual dogs (Dog 1-6), 0.18 mg/kg

With `COc1ccc(-n2nc(C(N)=O)c3c2C(=O)N(c2ccc(N4CCCCC4=O)cc2)CC3)cc1` [apixaban] as the compound, how does the Vd ([1]; both sexes, mixed-breed, dog, in vivo, iv, 0.18 mg/kg, IV, mean dose 0.18 mg/kg, individual dogs (Dog 1-6)) read?
Its Vd is 0.163 L/kg.

What about the AUC [1, 6] of the same compound?
The AUC was 5620 ng·h/mL.

And the C0 [1, 6]?
Its C0 is 1000 ng/mL.

And the clearance [1, 6]?
The clearance was 0.52 mL/min/kg.

And the half-life [1, 6]?
The half-life was 3.9 h.

And the MRT [1, 6]?
The MRT was 5.6 h.

And the Vd [1, 6]?
Its Vd is 0.175 L/kg.

What about the C0 ([1]; both sexes, mixed-breed, dog, plasma, iv, 0.18 mg/kg, IV, mean dose 0.18 mg/kg, individual dogs (Dog 1-6)) of the same compound?
The C0 was 1210 ng/mL.

What about the AUC [1, 7] of the same compound?
The AUC was 6030 ng·h/mL.

What about the C0 [1, 7] of the same compound?
The C0 was 1010 ng/mL.

And the clearance [1, 7]?
The clearance was 0.563 mL/min/kg.

What about the half-life [1, 7] of the same compound?
Its half-life is roughly 4.1 h.

And the MRT [1, 7]?
The MRT was 6 h.

And the Vd [1, 7]?
The Vd was 0.177 L/kg.

What about the concentration at 24 h ([1]; both sexes, mixed-breed, dog, plasma, IV 0.18 mg/kg, at 24 h, read-out: mean residual plasma concentration) of the same compound?
Its concentration at 24 h is 17 ng/mL.

What about the AUC ([1]; both sexes, mixed-breed, in vivo, IV, mean dose 0.18 mg/kg, one-compartment model, individual dogs (Dog 1-6)) of the same compound?
The AUC was 8140 ng·h/mL.

What about the “AUC (area-under-the-curve)” value ([1]; IV, mean dose 0.18 mg/kg, one-compartment model, individual dogs (Dog 1-6), 0.18 mg/kg) of the same compound?
The value was 5,726.9 h*ng/ml and 4,802.6 h*ng/ml and 7,639.4 h*ng/ml and 7,330.9 h*ng/ml and 2,516.3 h*ng/ml.

And the “K10 (first order elimination rate)” value ([1]; IV, mean dose 0.18 mg/kg, geometric mean)?
The value was 0.2 h⁻¹.

And the “C0 (concentration at time zero)” value [1, 8]?
Its value is 853.9 ng/ml and 1,108.0 ng/ml and 958.3 ng/ml and 1,005.0 ng/ml and 913.4 ng/ml.

And the “CL (systemic clearance)” value [1, 8]?
The value was 0.573 mL/min/kg and 0.683 mL/min/kg and 0.39 mL/min/kg and 0.367 mL/min/kg and 0.348 mL/min/kg and 1.01 mL/min/kg.

What about the “K10 (first order elimination rate)” value [1, 8] of the same compound?
Its value is 0.2 1/h (3×) and 0.1 1/h (2×) and 0.4 1/h.

And the “K10 T½ (elimination half-life)” value [1, 8]?
Its value is 3.3 h and 4.8 h and 5.9 h and 5.1 h and 1.9 h.

And the “K10 (first order elimination rate)” value ([1]; IV, mean dose 0.18 mg/kg, mean of 6 dogs)?
The value was 0.2 h⁻¹.

What about the aPTT versus baseline ([2]; IV 0.18 mg/kg, at 5 and 15 min post-injection) of the same compound?
Its aPTT versus baseline is “significantly prolonged”.

And the aPTT versus baseline ([2]; PO 0.2 mg/kg, 0.2 mg/kg)?
The aPTT versus baseline was “not consistently affected; also recorded: did not have a significant effect”.

And the “excretion of the unchanged compound via gastrointestinal routes” value [3]?
Its value is 59%.

What about the “excretion of the unchanged compound via renal route” value [3] of the same compound?
The value was 7%.

What about the “plasma concentrations after oral administration” value ([4]; oral) of the same compound?
Its value is “did not lead to quantifiable apixaban concentrations in plasma”.

And the “time by which concentrations declined below the lower limit of quantitation” value ([4]; single injection)?
Its value is no more than 8 h.

What about the half-life [4] of the same compound?
Its half-life is 1.3 h.

What about the protein binding [4] of the same compound?
The protein binding was “highly protein bound”.

What about the “aXa activity observed after 12 h” value ([5]; humans receiving a single intravenous apixaban injection) of the same compound?
The value was 150 ng/mL.

What about the “aXa activity values typically observed in human treatment trials” value ([5]; humans) of the same compound?
The value was “approximately 150 ng/ml”.
